Measurements published in US7754795B2, “Coating composition” (3M Innovative Properties Company, priority 2006, dated 2010).
Marks after values point to notes of the source that are not given here.

Test: Determination of bio-accumulation: urinary clearance pharmacokinetic study in rats, with observation for toxicity and gross necropsy
Assay type: in vivo, male Sprague Dawley rats
Settings: rat, oral gavage
Experimental: The perfluorinated and partially fluorinated carboxylates were evaluated for urinary clearance using a pharmacokinetic study in rats. The goal was to measure the total amount of parent compound eliminated via urinary output and estimate the rate of elimination. The study was approved by the IACUC (Institutional Animal Care and Use Committees) and was performed in 3M Company's AAALAC (Association for Assessment and Accreditation of Laboratory Animal Care)-accredited facility.
The study utilized male Sprague Dawley rats, 6 to 8 weeks of age, and approximately 200 to 250 g body weight at study onset. The test compounds of table 2 were administered at a dose of 73 micro Moles per kg body weight in rats (N=3 animals per tested compound). All test compounds were prepared in sterile deionized water and given to rats via oral gavage. After test compounds administration, the rats were housed individually in metabolism cages for urine collection: 0 to 6 hours, 6 to 24 hours, 24 to 48 hours and […]. Animals were observed throughout the study for clinical signs of toxicity. Gross necropsy was performed at the termination of each study (96 hours post-dose) with sera and liver samples being retained from each animal.
The concentration of the parent compound or metabolites thereof were quantitatively measured via fluorine NMR on each urine sample for each animal at each time point based on internally added standards.

[1] = 73 micro Moles per kg, no parent compound observed in the urine

SMILES | T½ (73 micro Moles per kg body weight, parent compound in urine by fluorine NMR, exponential least squares curve fitting) [h] | % Recovery (96 h), based on elimination of the major metabolite C3F7—O—CHFCOO− [1] | T½ (h), based on elimination of the major metabolite C3F7—O—CHFCOO− [1]
N.O=C(O)C(F)(F)OC(F)(F)C(F)(F)C(F)(F)OC(F)(F)F [Compound 1, CF3—O—(CF2)3—O—CF2—COONH4] | 10 | – | –
N.O=C(O)COC(F)(F)C(F)OC(F)(F)C(F)(F)C(F)(F)F (stereo not drawn) [Compound 16, C3F7—O—CFH—CF2—O—CH2—COONH4] | – | 65* % | 13* h
